Some results are limits rather than exact numbers.

EZH2, sequence (Q15910 other isoform, or with tags, fused parts or gaps): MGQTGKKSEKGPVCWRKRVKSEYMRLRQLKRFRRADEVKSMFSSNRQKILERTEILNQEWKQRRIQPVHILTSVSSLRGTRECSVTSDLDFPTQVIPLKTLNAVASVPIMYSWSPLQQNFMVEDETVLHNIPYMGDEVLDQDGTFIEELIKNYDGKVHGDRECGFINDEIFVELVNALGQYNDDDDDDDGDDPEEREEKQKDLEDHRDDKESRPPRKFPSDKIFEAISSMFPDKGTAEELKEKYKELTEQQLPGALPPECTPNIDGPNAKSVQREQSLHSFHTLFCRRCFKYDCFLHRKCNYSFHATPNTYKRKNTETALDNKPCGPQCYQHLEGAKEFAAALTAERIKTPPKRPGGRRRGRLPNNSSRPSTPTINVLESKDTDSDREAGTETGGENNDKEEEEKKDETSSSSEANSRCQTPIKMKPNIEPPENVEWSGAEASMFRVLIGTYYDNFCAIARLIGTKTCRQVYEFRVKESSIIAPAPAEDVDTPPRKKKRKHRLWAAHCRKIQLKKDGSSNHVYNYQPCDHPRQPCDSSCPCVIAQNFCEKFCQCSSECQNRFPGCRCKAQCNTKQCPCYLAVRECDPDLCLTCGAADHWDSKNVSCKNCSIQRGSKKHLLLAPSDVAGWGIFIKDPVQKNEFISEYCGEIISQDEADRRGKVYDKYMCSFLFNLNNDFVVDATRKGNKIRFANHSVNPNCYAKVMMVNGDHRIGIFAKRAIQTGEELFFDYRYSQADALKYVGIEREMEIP
EZH2, sequence (O75530 whole entry partner): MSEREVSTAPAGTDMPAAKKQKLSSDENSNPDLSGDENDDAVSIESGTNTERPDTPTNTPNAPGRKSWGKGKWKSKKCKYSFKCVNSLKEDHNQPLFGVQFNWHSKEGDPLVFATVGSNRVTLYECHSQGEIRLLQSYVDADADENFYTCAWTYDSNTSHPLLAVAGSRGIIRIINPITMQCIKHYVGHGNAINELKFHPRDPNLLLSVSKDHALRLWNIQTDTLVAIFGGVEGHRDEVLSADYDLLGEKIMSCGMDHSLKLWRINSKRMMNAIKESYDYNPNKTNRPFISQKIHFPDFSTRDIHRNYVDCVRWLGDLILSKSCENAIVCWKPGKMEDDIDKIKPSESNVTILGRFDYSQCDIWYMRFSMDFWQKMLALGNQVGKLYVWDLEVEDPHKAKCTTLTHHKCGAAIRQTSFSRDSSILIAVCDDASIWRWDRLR
EZH2, sequence (Q15022 whole entry partner): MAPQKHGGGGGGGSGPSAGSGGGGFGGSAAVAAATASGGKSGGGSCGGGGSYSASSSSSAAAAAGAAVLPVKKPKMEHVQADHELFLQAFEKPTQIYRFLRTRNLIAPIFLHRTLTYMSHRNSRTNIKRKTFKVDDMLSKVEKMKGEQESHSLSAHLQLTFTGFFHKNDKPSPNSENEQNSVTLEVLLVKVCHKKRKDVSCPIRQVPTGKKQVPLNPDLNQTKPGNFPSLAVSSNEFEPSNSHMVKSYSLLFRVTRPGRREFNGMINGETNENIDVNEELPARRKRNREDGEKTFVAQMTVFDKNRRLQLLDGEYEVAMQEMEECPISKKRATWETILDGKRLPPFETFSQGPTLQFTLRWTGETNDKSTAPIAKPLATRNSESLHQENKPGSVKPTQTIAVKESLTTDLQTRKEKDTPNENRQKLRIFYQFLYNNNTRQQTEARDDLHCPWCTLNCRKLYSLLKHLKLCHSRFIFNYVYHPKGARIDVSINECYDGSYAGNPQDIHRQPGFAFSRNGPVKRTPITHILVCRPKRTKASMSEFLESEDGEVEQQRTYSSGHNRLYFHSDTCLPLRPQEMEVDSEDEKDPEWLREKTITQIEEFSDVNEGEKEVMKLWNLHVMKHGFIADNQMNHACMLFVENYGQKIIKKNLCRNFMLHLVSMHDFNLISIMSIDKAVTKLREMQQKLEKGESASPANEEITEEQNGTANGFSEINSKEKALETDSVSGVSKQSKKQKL
EZH2, sequence (Q09028 whole entry partner): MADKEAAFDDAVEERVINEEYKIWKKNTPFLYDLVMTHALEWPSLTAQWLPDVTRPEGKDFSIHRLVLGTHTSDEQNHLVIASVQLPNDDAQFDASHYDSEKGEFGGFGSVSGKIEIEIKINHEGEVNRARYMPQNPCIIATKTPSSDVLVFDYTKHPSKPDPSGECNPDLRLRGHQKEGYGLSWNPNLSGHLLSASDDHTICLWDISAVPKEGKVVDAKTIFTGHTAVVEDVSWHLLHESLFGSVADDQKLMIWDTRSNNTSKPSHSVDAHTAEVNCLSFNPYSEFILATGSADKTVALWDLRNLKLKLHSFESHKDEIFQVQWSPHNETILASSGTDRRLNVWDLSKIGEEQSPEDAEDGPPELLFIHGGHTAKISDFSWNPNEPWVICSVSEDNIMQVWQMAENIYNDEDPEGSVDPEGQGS

The experiment concerns the target EZH2 (Homo sapiens (Human), UniProt Q15910). As to the kind of experiment: PRC2 enzyme assay on peptide substrates. In kind it is biochemical. The note with it: PRC2 enzyme assays on peptide substrates; 4 nM enzyme, 30 min preincubation at 25° C.; read-out: EZH2 IC50. An excerpt:
General Materials. S-adenosylmethionine (SAM), S-adenosylhomocyteine (SAH), bicine, KCl, Tween20, dimethylsulfoxide (DMSO) and bovine skin gelatin (BSG) were purchased from Sigma-Aldrich at the highest level of purity possible. Dithiothreitol (DTT) was purchased from EMD. ^3H-SAM was purchased from American Radiolabeled Chemicals with a specific activity of 80 Ci/mmol. 384-well streptavidin Flashplates were purchased from PerkinElmer.
Substrates. […] The sequences are listed below.
Recombinant PRC2 Enzymes. Human PRC2 enzymes were purified as 4-component enzyme complexes co-expressed in Spodoptera frugiperda (sf9) cells using a baculovirus expression system. The subunits expressed were wild-type EZH2 (NM_004456) or EZH2 Y641F, N, H, S or C mutants generated from the wild-type EZH2 construct, EED (NM_003797), Suz12 (NM_015355) and RbAp48 (NM_005610). The EED subunit contained an N-terminal FLAG tag that was used to purify the entire 4-component complex from sf9 cell lysates.
General Procedure for PRC2 Enzyme Assays on Peptide Substrates. The assays were all performed in a buffer consisting of 20 mM bicine (pH=7.6), 0.5 mM DTT, 0.005% BSG and 0.002% Tween20, prepared on the day of use. […] DMSO (1 μL) was added to columns 11, 12, 23, 24, rows A-H for the maximum signal control, and SAH, a known product and inhibitor of PRC2 (1 μL) was added to columns 11, 12, 23, 24, rows I-P for the minimum signal control. A cocktail (40 μL) containing the wild-type PRC2 enzyme and H3K27me0 peptide or any of the Y641 mutant enzymes and H3K27me2 peptide was added by Multidrop Combi (Thermo). The compounds were allowed to incubate with PRC2 for 30 min at 25° C., then a cocktail (10 μL) containing a mixture of non-radioactive and ^3H-SAM was added to initiate the reaction (final volume=51 μL). […] The assays were stopped by the addition of non-radioactive SAM (10 μL) to a final concentration of 600 μM, which dilutes the ^3H-SAM to a level where its incorporation into the peptide substrate is no longer detectable. 50 μL of the reaction in the 384-well polypropylene plate was then transferred to a 384-well Flashplate and the biotinylated peptides were allowed to bind to the streptavidin surface for at least 1 h before being washed three times with 0.1% Tween20 in a Biotek ELx405 plate washer. The plates were then read in a PerkinElmer TopCount platereader to measure the quantity of ^3H-labeled peptide bound to the Flashplate surface, measured as disintegrations per minute (dpm) or alternatively, referred to as counts per minute (cpm).
Where dpm=disintegrations per minute, cmpd=signal in assay well, and min and max are the respective minimum and maximum signal controls.
Where top and bottom are the normally allowed to float, but may be fixed at 100 or 0 respectively in a 3-parameter fit. The Hill Coefficient normally allowed to float but may also be fixed at 1 in a 3-parameter fit. Y is the % inhibition and X is the compound concentration.
What is called IC50 is the concentration that inhibits the measured activity by half. Consider “1-cyclopentyl-N-((4,6-dimethyl-2-oxo-1,2-dihydropyridin-3-yl)methyl)-6-(2,2,6,6-tetramethylpiperidin-4-yl)-1H-pyrazolo[3,4-b]pyridine-4-carboxamide [Compound B-4]”, for which the IC50 was below 0.3 µM.

“1-cyclopentyl-N-((4,6-dimethyl-2-oxo-1,2-dihydropyridin-3-yl)methyl)-6-(2-ethoxy-4-((4-ethylpiperazin-1-yl)sulfonyl)phenyl)-1H-indazole-4-carboxamide [Compound C-14]”: the IC50 is below 0.3 µM.

For `Cc1cc(C)c(CNC(=O)c2cc(-c3ccc(CN4CCOCC4)cc3)nc3c2cnn3C2CCCC2)c(=O)[nH]1` [Compound A-1, 1-cyclopentyl-N-((4,6-dimethyl-2-oxo-1,2-dihydropyridin-3-yl)methyl)-6-(4-(morpholinomethyl)phenyl)-1H-pyrazolo[3,4-b]pyridine-4-carboxamide], the IC50 is below 0.3 µM.

`Cc1cc(C)c(CNC(=O)c2cc(-c3cccc(CN(C)C)c3)nc3c2cnn3C(C)C)c(=O)[nH]1` [Compound A-3, N-((4,6-dimethyl-2-oxo-1,2-dihydropyridin-3-yl)methyl)-6-(3-((dimethylamino)methyl)phenyl)-1-isopropyl-1H-pyrazolo[3,4-b]pyridine-4-carboxamide]: the IC50 lay within 0.3 to 1 µM.

For `Cc1cc(C)c(CNC(=O)c2cc(-c3cnc(N)nc3)nc3c2cnn3C(C)C)c(=O)[nH]1` [Compound A-4, 6-(2-aminopyrimidin-5-yl)-N-((4,6-dimethyl-2-oxo-1,2-dihydropyridin-3-yl)methyl)-1-isopropyl-1H-pyrazolo[3,4-b]pyridine-4-carboxamide], the IC50 lay in the range of 0.3 to 1 µM.

On to `Cc1cc(C)c(CNC(=O)c2cc(-c3ccc(N4CCN(C(=O)OC(C)(C)C)CC4)nc3)nc3c2cnn3C(C)C)c(=O)[nH]1` [Compound A-6, tert-butyl 4-(5-(4-(((4,6-dimethyl-2-oxo-1,2-dihydropyridin-3-yl)methyl)carbamoyl)-1-isopropyl-1H-pyrazolo[3,4-b]pyridin-6-yl)pyridin-2-yl)piperazine-1-carboxylate], for which the IC50 fell in the range of 0.3 to 1 µM.

As to `Cc1cc(C)c(CNC(=O)c2cc(-c3ccc(N4CCNCC4)cc3)nc3c2cnn3C(C)C)c(=O)[nH]1` [Compound A-7, N-((4,6-dimethyl-2-oxo-1,2-dihydropyridin-3-yl)methyl)-1-isopropyl-6-(4-(piperazin-1-yl)phenyl)-1H-pyrazolo[3,4-b]pyridine-4-carboxamide], the IC50 is below 0.3 µM.

On to `Cc1cc(C)c(CNC(=O)c2cc(-c3ccc(N4CCNCC4)nc3)nc3c2cnn3C(C)C)c(=O)[nH]1` [Compound A-10, N-((4,6-dimethyl-2-oxo-1,2-dihydropyridin-3-yl)methyl)-1-isopropyl-6-(6-(piperazin-1-yl)pyridin-3-yl)-1H-pyrazolo[3,4-b]pyridine-4-carboxamide], for which the IC50 is below 0.3 µM.

As to `Cc1cc(C)c(CNC(=O)c2cc(-c3cccc(C(=O)NCCCN(C)C)c3)nc3c2cnn3C(C)C)c(=O)[nH]1` [Compound A-13, N-((4,6-dimethyl-2-oxo-1,2-dihydropyridin-3-yl)methyl)-6-(3-((3-(dimethylamino)propyl)carbamoyl)phenyl)-1-isopropyl-1H-pyrazolo[3,4-b]pyridine-4-carboxamide], the IC50 is below 0.3 µM.

In the case of `Cc1cc(C)c(CNC(=O)c2cc(-c3ccc(CN)cc3)nc3c2cnn3C(C)C)c(=O)[nH]1` [Compound A-14, 6-(4-(aminomethyl)phenyl)-N-((4,6-dimethyl-2-oxo-1,2-dihydropyridin-3-yl)methyl)-1-isopropyl-1H-pyrazolo[3,4-b]pyridine-4-carboxamide], the IC50 is below 0.3 µM.

As to `Cc1cc(C)c(CNC(=O)c2cc(-c3ccc(CN(C)CCCN(C)C)cc3)nc3c2cnn3C(C)C)c(=O)[nH]1` [Compound A-15, N-((4,6-dimethyl-2-oxo-1,2-dihydropyridin-3-yl)methyl)-6-(4-(((3-(dimethylamino)propyl)(methyl)amino)methyl)phenyl)-1-isopropyl-1H-pyrazolo[3,4-b]pyridine-4-carboxamide], the IC50 is below 0.3 µM.

Regarding `Cc1cc(C)c(CNC(=O)c2cc(-c3ccc(CN4CCOCC4)cc3)nc3c2c(Br)nn3C(C)C)c(=O)[nH]1` [Compound A-17, 3-bromo-N-((4,6-dimethyl-2-oxo-1,2-dihydropyridin-3-yl)methyl)-1-isopropyl-6-(4-(morpholinomethyl)phenyl)-1H-pyrazolo[3,4-b]pyridine-4-carboxamide], the IC50 was below 0.3 µM.

With `Cc1cc(C)c(CNC(=O)c2cc(-c3ccc(C(=O)NCCN(C)C)cc3)nc3c2cnn3C(C)C)c(=O)[nH]1` [Compound A-18], the IC50 is below 0.3 µM.

`Cc1cc(C)c(CNC(=O)c2cc(-c3ccc(CN(C)CCN4CCCC4)cc3)nc3c2cnn3C(C)C)c(=O)[nH]1` [Compound A-21]: the IC50 lay in the range of 0.3 to 1 µM.

In the case of `Cc1cc(C)c(CNC(=O)c2cc(-c3ccc(CN(C)C)cc3)nc3c2cnn3C(C)C)c(=O)[nH]1` [Compound A-22], the IC50 was 0.3 to 1 µM.

Turning to `Cc1cc(C)c(CNC(=O)c2cc(-c3cccc(CNCCN)c3)nc3c2cnn3C(C)C)c(=O)[nH]1` [Compound A-26], the IC50 lay in the range of 0.3 to 1 µM.

In the case of `Cc1cc(C)c(CNC(=O)c2cc(-c3ccnc(N4CCN(C(=O)OC(C)(C)C)CC4)c3)nc3c2cnn3C(C)C)c(=O)[nH]1` [Compound A-27], the IC50 was in the range of 0.3 to 1 µM.

For `Cc1cc(C)c(CNC(=O)c2cc(-c3cccc(CN)c3)nc3c2cnn3C(C)C)c(=O)[nH]1` [Compound A-32], the IC50 fell in the range of 0.3 to 1 µM.

`Cc1cc(C)c(CNC(=O)c2cc(-c3ccc(CN(C)CCN)cc3)nc3c2cnn3C(C)C)c(=O)[nH]1` [Compound A-33]: the IC50 is 0.3 to 1 µM.

With `Cc1cc(C)c(CNC(=O)c2cc(-c3cccc(CN(C)CCN)c3)nc3c2cnn3C(C)C)c(=O)[nH]1` [Compound A-34], the IC50 was 0.3 to 1 µM.

With `Cc1cc(C)c(CNC(=O)c2cc(-c3ccnc(N4CCNCC4)c3)nc3c2cnn3C(C)C)c(=O)[nH]1` [Compound A-37], the IC50 fell in the range of 0.3 to 1 µM.

On to `Cc1cc(C)c(CNC(=O)c2cc(-c3cccc(CN(C)CCN4CCCC4)c3)cc3c2cnn3C(C)C)c(=O)[nH]1` [Compound A-41], for which the IC50 lay in the range of 0.3 to 1 µM.

Regarding `Cc1cc(CN(C)C)c(CNC(=O)c2cc(-c3ccc(CN4CCOCC4)cc3)nc3c2cnn3C(C)C)c(=O)[nH]1` [Compound A-43], the IC50 lay within 0.3 to 1 µM.

As for `Cc1cc(C)c(CNC(=O)c2cc(-c3ccc(N4CCN(C(=O)OC(C)(C)C)CC4)nc3)nc3c2cnn3C(C)C)c(=O)[nH]1` [Compound A-44], the IC50 was in the range of 0.3 to 1 µM.

On to `Cc1cc(C)c(CNC(=O)c2c(Cl)c(-c3ccc4c(c3)OCCO4)cc3c2cnn3C(C)C)c(=O)[nH]1` [Compound A-47], for which the IC50 was 0.3 to 1 µM.

For the compound `Cc1cc(C)c(CNC(=O)c2cc(-c3cnn(C)c3)nc3c2cnn3C(C)C)c(=O)[nH]1` [Compound A-48], the IC50 lay within 1 to 3 µM.

`Cc1cc(C)c(CNC(=O)c2cc(-c3cn[nH]c3)nc3c2cnn3C(C)C)c(=O)[nH]1` [Compound A-49]: the IC50 lay within 1 to 3 µM.

For `Cc1cc(C)c(CNC(=O)c2cc(-c3ccc(N)nc3)nc3c2cnn3C(C)C)c(=O)[nH]1` [Compound A-50], the IC50 is 1 to 3 µM.

As for `Cc1cc(C)c(CNC(=O)c2cc(-c3ccc(N4CCN(C(=O)OC(C)(C)C)CC4)cc3)nc3c2cnn3C(C)C)c(=O)[nH]1` [Compound A-51], the IC50 fell in the range of 1 to 3 µM.

As for `Cc1cc(C)c(CNC(=O)c2cc(-c3ccc(C(=O)O)cc3)nc3c2cnn3C(C)C)c(=O)[nH]1` [Compound A-53], the IC50 lay in the range of 1 to 3 µM.

On to `Cc1cc(C)c(CNC(=O)c2cc(-c3cccc(CN4CCOCC4)c3)nc3c2cnn3C(C)C)c(=O)[nH]1` [Compound A-54], for which the IC50 fell in the range of 1 to 3 µM.

With `CNCCN(C)Cc1cccc(-c2cc(C(=O)NCc3c(C)cc(C)[nH]c3=O)c3c(n2)N(C(C)C)NC3)c1` [Compound A-58], the IC50 was 1 to 3 µM.

In the case of `Cc1ccc(CNC(=O)c2cc(-c3ccc(N4CCN(C)CC4)nc3)nc3c2cnn3C(C)C)c(=O)[nH]1` [Compound A-60], the IC50 was in the range of 1 to 3 µM.

For the compound `Cc1cc(C)c(CNC(=O)c2cc(-c3cccnc3N3CCN(C)CC3)nc3c2cnn3C(C)C)c(=O)[nH]1` [Compound A-63], the IC50 lay in the range of 1 to 3 µM.

The record behind these values is patent US9637472B2, “Substituted 6,5-fused bicyclic heteroaryl compounds” (Epizyme, Inc., priority 2011, dated 2017).
